Results as given in paper PMC6862080, “Blood Compatibility—An Important but Often Forgotten Aspect of the Characterization of Antimicrobial Peptides for Clinical Application” (International Journal of Molecular Sciences, 2019).
Like-named read-outs stand apart in the source and are kept apart here. Peptide text beside a SMILES is read from it. * marks the point of attachment. Myristoyl = CCCCCCCCCCCCCC(=O)*

Experiments:
S. aureus (ATCC 12600) = assay: microbe, parasite or virus in culture; type: cell-based; conditions: for MIC: Staphylococcus aureus
platelets [1] = assay: Platelet activation, platelet count in citrate anticoagulated PRP; type: cell-based, human; conditions: 128 μg/mL, 2 h, 37 °C, Sysmex analyzer, n = 3
Procedure: (§1) Since it was observed that some AMPs are able to activate the plasmatic coagulation system of heparinized and citrate anticoagulated blood, the influence of this peptides on platelets was investigated. For this purpose, fresh heparinized and citrated blood were collected from three donors. The blood was centrifuged at 500 g for 5 min and platelet rich plasma (PRP) was obtained. The PRP was incubated at 37 °C for 2 h with 128 μg/mL AMP, PMB, and LL-37. PRP without any additives served as the control. After incubation, the platelet number was determined by a Sysmex Automated Hematology Analyzer KX-21-N (Kobe, Japan). In addition, the PRP samples were prepared for SEM to visualize the morphology of the thrombocytes. After incubation, 10 μL PRP were diluted with 990 μL PBS (0.01 M) and filtered through a 0.2 μm membrane (Membrane Filter Isopore 0.2 μm, Merck, Darmstadt, Germany). The platelets were retained on the membrane, washed with 1 mL PBS, and fixed with 1 mL glutaraldehyde solution (2.5% glutaraldehyde in physiological saline solution). After an incubation time of 60 min, the samples were dehydrated using a series of ethanol (30%, 50%, 60%, 70%, 80%, 90%, and 100%). Afterwards the samples were dried overnight at RT, sputtered with gold and visualized with a scanning electron microscope (FLEXSem 1000, Hitachi, Japan).

platelets [2] = assay: SEM imaging of platelet morphology in PRP; type: cell-based, human; conditions: 128 μg/mL, 2 h, 37 °C
Procedure: as §1

erythrocyte membranes [3] = assay: Hemolysis in whole blood (Kahn method); type: cell-based, human
Procedure: (§2) Hemolysis was tested with fresh citrate anticoagulated blood from healthy volunteers as well as with blood cells which were suspended in phosphate buffered saline (10 mM pH 7.4). Afterwards, 100 μL AMP solution was added to 500 μL blood to finally achieve AMP concentrations of 8, 32, and 128 μg/mL. As the negative and positive control, 100 μL PBS buffer and 100 μL 12% Triton-X buffer was added to 500 μL blood, respectively. After incubation on an orbital shaker for 60 min at 37 °C, the cells were removed by centrifugation and 100 μL of the supernatant were transferred to a 96 well microplate for hemolysis measurement. The hemolysis was calculated from the extinction at the wavelengths 562, 578, and 598 nm with a Synergy 2 microplate reader (BioTek, Winooski, VT, USA) according to the method published by Kahn.

human leukocytes = assay: Cytotoxicity on leukocytes in whole blood, flow cytometry (7-AAD); type: cell-based; conditions: citrate anticoagulated whole blood, 128 μg/mL, 37 °C, 120 min / 60 min, CD45, flow cytometry, n = 3
Procedure: The measurement of the membrane destabilization of leukocytes by AMPs was carried out by flow cytometry. […] Whole blood without AMPs or antibiotics was used as a control. After incubation, the proportion of apoptotic and dead cells was determined by flow cytometry. To achieve this, blood samples were diluted 1:100 with 0.01 M phosphate buffered saline and centrifuged at 300 g for 10 min. The supernatant was removed, and cells were stained with 10 μL CD45 pacific blue (leukocyte marker; Beckman coulter, Brea, CA) and 10 μL 7-AAD (a marker for dead cells; Sigma-Aldrich, Steinheim, Germany) for 15 min at room temperature in the dark. After incubation, 1.8 mL lysis buffer (1:10 dilution in distilled water) was added, mixed, and incubated for 10 min at room temperature in the dark. This was followed by two washing steps (2300 g, 5 min, room temperature) and the cells were resuspended in a final volume of 200 μL 0.01 M PBS for measurement. Flow cytometry was performed using a Gallios flow cytometer (Beckman Coulter, Brea, CA, USA) equipped with 405 nm, 488 nm, and 638 nm lasers and the Kaluza Analysis Software (Beckman Coulter, Brea, CA, USA), which was used for measurement and data analysis. Blood cells which were incubated in 70% methanol before staining served as the positive control and blood cells without any additives were used as the negative control.

platelets [4] = assay: Platelet activation, platelet count in heparin anticoagulated PRP; type: cell-based, human; conditions: 128 μg/mL, 2 h, 37 °C, Sysmex analyzer, n = 3
Procedure: as §1

plasmatic coagulation [5] = assay: Clotting batch test in citrate plasma; type: biochemical, human; on Clotting of citrate plasma, Peptide Concentration 128 μg/mL: key: −: no clotting observed, no D-dimers and normal fibrinogen level; +: clotting observed, high D-dimer level, no detectable fibrinogen serum level; on Clotting of citrate plasma, Peptide Concentration 256 μg/mL: key: −: no clotting observed, no D-dimers and normal fibrinogen level; +: clotting observed, high D-dimer level, no detectable fibrinogen serum level; on Clotting of citrate plasma, Peptide Concentration 32 μg/mL: key: −: no clotting observed, no D-dimers and normal fibrinogen level; +: clotting observed, high D-dimer level, no detectable fibrinogen serum level; on Clotting of citrate plasma, Peptide Concentration 8 μg/mL: key: −: no clotting observed, no D-dimers and normal fibrinogen level; +: clotting observed, high D-dimer level, no detectable fibrinogen serum level
Procedure: Since the acylated LF11-322 peptides cause plasmatic coagulation of citrate anticoagulated plasma, separate clotting experiments were performed with this peptide group. The aim was to check whether the coagulation activation is dependent on the AMP concentration and on the acyl chain length. […] Plasma without additives served as the negative control, whereas plasma spiked with CaCl2/MgCl2 (500/250 mM) solution to restore the physiological calcium and magnesium level in plasma was used as the positive control. Incubation was performed at 37 °C for 60 min. […] In order to ensure that the measured turbidity of the plasma is caused by fibrin formation, the fibrinogen and D-Dimer concentrations were additionally determined. During plasmatic clotting, the fibrinogen level decreases and the D-Dimer level in serum increases. Both were analyzed on a Sysmex CA560 with the corresponding reagents (Siemens Healthineers, Erlangen, Germany).

E. coli (ATCC 11303) = assay: microbe, parasite or virus in culture; type: cell-based; conditions: for MIC: Escherichia coli
erythrocyte membranes [6] = assay: Hemolysis in RBC suspended in PBS (Kahn method); type: cell-based, human
Procedure: as §2

[7] = tested on: all species of Enterobacteriaceae and Staphylococcus; conditions: against all species of Enterobacteriaceae and Staphylococcus; cited from earlier work
Procedure: It is noticeable that the MIC decreases with increasing acylation length of the peptide (Table 1). The antimicrobial effect of the LF11-322 peptides against E. coli and S. aureus decreased when the MIC was tested in 4% HSA solution. This is probably due to the partial binding of AMPs to albumin.

plasmatic coagulation [8] = assay: Activation of the clotting cascade in citrated plasma; conditions: citrated (17 mM) plasma, 128 μg/mL, 37 °C, 120 min, turbidity at 600 nm
Procedure: (§3) Plasma spiked with MES buffer without AMP was used as the negative control. […] Samples were incubated at 37 °C for 120 min. Coagulation was determined by turbidity measurement at 600 nm using a well plate reader.

plasmatic coagulation [9] = assay: Activation of the clotting cascade in heparinized plasma; conditions: heparinized (0.5 IU/mL) plasma, 128 μg/mL, 37 °C, 120 min, turbidity at 600 nm
Procedure: as §3

[10] = citrate plasma, 37 °C, 60 min, turbidity 600 nm, fibrinogen and D-Dimer

Structure (SMILES): CCCCCCCCCCCCCC(=O)N1CCC[C@H]1C(=O)N[C@@H](Cc1ccccc1)C(=O)N[C@@H](Cc1c[nH]c2ccccc12)C(=O)N[C@@H](CCCNC(=N)N)C(=O)N[C@H](C(=O)N[C@@H](CCCNC(=N)N)C(=O)N[C@H](C(=O)N[C@@H](CCCNC(=N)N)C(=O)N[C@@H](CCCNC(=N)N)C(N)=O)[C@@H](C)CC)[C@@H](C)CC [LF11-322-C14] (Myristoyl-PFWRIRIRR-NH2)
- Minimal Inhibitory Concentration, S. aureus, PBS (S. aureus (ATCC 12600); ATCC 12600, pH 7.4): 8 µg/mL
- Platelet count in citrate anticoagulated PRP vs control (in words) (platelets [1]): significantly reduce the platelet count
- Platelet morphology by SEM, citrate anticoagulated PRP (in words) (platelets [2]): hardly any intact platelets left
- Free Hemoglobin, BLOOD, 8 μg/mL (erythrocyte membranes [3]): 2.9 ± 3.4 mg/dL
- Free Hemoglobin, BLOOD, 32 μg/mL (erythrocyte membranes [3]): 5.4 ± 3.2 mg/dL
- Free Hemoglobin, BLOOD, 128 μg/mL (erythrocyte membranes [3]): 2.9 ± 4.2 mg/dL
- Percentage of dead leukocytes (human leukocytes): 21 ± 16%
- Platelet count in heparinized PRP vs control (in words) (platelets [4]): no significant difference in platelet count
- Peptide concentration that triggers clotting of citrate plasma (plasmatic coagulation [5]): ≥ 32 µg/mL
- Minimal Inhibitory Concentration, E. coli, PBS (E. coli (ATCC 11303); ATCC 11303, pH 7.4): 64 µg/mL
- Free Hemoglobin, RBC in PBS, 8 μg/mL (erythrocyte membranes [6]; pH 7.4): 12.9 ± 1.2 mg/dL
- Free Hemoglobin, RBC in PBS, 32 μg/mL (erythrocyte membranes [6]; pH 7.4): 31.8 ± 3.14 mg/dL

Structure (SMILES): O=C(O)c1cn(C2CC2)c2cc(N3CCNCC3)c(F)cc2c1=O [Ciprofloxacin, reference compound]
- MIC (S. aureus (ATCC 12600); ATCC12600, pH 7.4, read-out: Minimal Inhibitory Concentration, S. aureus, PBS): < 0.0625 µg/mL
- MIC (S. aureus (ATCC 12600); ATCC12600, read-out: Minimal Inhibitory Concentration, S. aureus, PBS + heparin): < 0.0625 µg/mL
- MIC90 [7]: < 1 µg/mL
- MIC (E. coli (ATCC 11303); ATCC11303, pH 7.4, read-out: Minimal Inhibitory Concentration, E. coli, PBS): < 0.0625 µg/mL
- MIC (E. coli (ATCC 11303); ATCC11303, read-out: Minimal Inhibitory Concentration, E. coli, PBS + heparin): < 0.0625 µg/mL

Structure (SMILES): CC[C@H](C)[C@H](NC(=O)[C@H](CCCCN)NC(=O)[C@H](CCC(=O)O)NC(=O)[C@H](CCCCN)NC(=O)[C@H](CO)NC(=O)[C@H](CCCCN)NC(=O)[C@H](CCCNC(=N)N)NC(=O)[C@H](Cc1ccccc1)NC(=O)[C@H](Cc1ccccc1)NC(=O)[C@H](CC(=O)O)NC(=O)CNC(=O)[C@H](CC(C)C)NC(=O)[C@@H](N)CC(C)C)C(=O)NCC(=O)N[C@@H](CCCCN)C(=O)N[C@@H](CCC(=O)O)C(=O)N[C@@H](Cc1ccccc1)C(=O)N[C@@H](CCCCN)C(=O)N[C@@H](CCCNC(=N)N)C(=O)N[C@H](C(=O)N[C@H](C(=O)N[C@@H](CCC(N)=O)C(=O)N[C@@H](CCCNC(=N)N)C(=O)N[C@H](C(=O)N[C@@H](CCCCN)C(=O)N[C@@H](CC(=O)O)C(=O)N[C@@H](Cc1ccccc1)C(=O)N[C@@H](CC(C)C)C(=O)N[C@@H](CCCNC(=N)N)C(=O)N[C@@H](CC(N)=O)C(=O)N[C@@H](CC(C)C)C(=O)N[C@H](C(=O)N1CCC[C@H]1C(=O)N[C@@H](CCCNC(=N)N)C(=O)N[C@H](C(=O)N[C@@H](CCC(=O)O)C(=O)N[C@@H](CO)C(=O)O)[C@@H](C)O)C(C)C)[C@@H](C)CC)C(C)C)[C@@H](C)CC [LL-37, reference compound]
- Free Hemoglobin, BLOOD, 8 μg/mL (erythrocyte membranes [3]; citrate anticoagulated whole blood, peptide conc. 8 μg/mL, 60 min 37 °C, Kahn method, n = 3, control 3.7 ± 1.9): 1.1 ± 0.7 mg/dL
- Free Hemoglobin, BLOOD, 32 μg/mL (erythrocyte membranes [3]; citrate anticoagulated whole blood, peptide conc. 32 μg/mL, 60 min 37 °C, Kahn method, n = 3, control 3.7 ± 1.9): 9.4 ± 13.4 mg/dL
- Free Hemoglobin, BLOOD, 128 μg/mL (erythrocyte membranes [3]; citrate anticoagulated whole blood, peptide conc. 128 μg/mL, 60 min 37 °C, Kahn method, n = 3, control 3.7 ± 1.9): 2.6 ± 3.7 mg/dL
- Plasma clot, Citrated Plasma (plasmatic coagulation [8]): −
- Clotting of citrate plasma, Peptide Concentration 8 μg/mL (plasmatic coagulation [5]; [10]): −
- Clotting of citrate plasma, Peptide Concentration 32 μg/mL (plasmatic coagulation [5]; [10]): −
- Clotting of citrate plasma, Peptide Concentration 128 μg/mL (plasmatic coagulation [5]; [10]): −
- Clotting of citrate plasma, Peptide Concentration 256 μg/mL (plasmatic coagulation [5]; [10]): −
- Plasma clot, Heparin Plasma (plasmatic coagulation [9]): −
- Free Hemoglobin, RBC in PBS, 128 μg/mL (erythrocyte membranes [6]; blood cells suspended in PBS 10 mM pH 7.4, highest peptide conc., 60 min 37 °C, Kahn method, n = 3, control 8.5 ± 4.7): 68.4 ± 15.0 mg/dL
- Free Hemoglobin, RBC in PBS, 8 μg/mL (erythrocyte membranes [6]; blood cells suspended in PBS 10 mM pH 7.4, peptide conc. 8 μg/mL, 60 min 37 °C, Kahn method, n = 3, control 8.5 ± 4.7): 2.4 ± 3.6 mg/dL
- Free Hemoglobin, RBC in PBS, 32 μg/mL (erythrocyte membranes [6]; blood cells suspended in PBS 10 mM pH 7.4, peptide conc. 32 μg/mL, 60 min 37 °C, Kahn method, n = 3, control 8.5 ± 4.7): 44.8 ± 17.7 mg/dL
